Measured values published in paper PMC9030166, “Natural Phaeosphaeride A Derivatives Overcome Drug Resistance of Tumor Cells and Modulate Signaling Pathways” (Pharmaceuticals, 2022).

Experiments:
[1] = test system: Akt (pSer473); assay: MILLIPLEX MAP 9-Plex, Akt active form in A431 lysates; type: cell-based, human; conditions: A431 cell lysates, 10 μM, 1 h, M ± mx; control 76.4 ± 16.9
Excerpt: (§1) We used the MILLIPLEX MAP Multi-Pathway Magnetic Bead 9-Plex-Cell Signaling Multiplex Assay, which allows the simultaneous detection of nine phosphorylated proteins that are markers of the main intracellular signaling pathways (phosphorylation site is indicated in parentheses), a universal transcription factor that controls the expression of immune response genes; apoptosis and cell cycle NFκB (pS536); cAMP-dependent transcription factor (CREB (pS133); mitogen-activated kinase p38 (pT180/pY182); stress-activated protein kinase JNK (pT183/pY185); ribosomal […]; transcription factors STAT3 (pS727) and STAT5A/B (pY694/699); protein kinase B (Akt) (pS473); and kinase regulated by extracellular signals ERK1/2 (pT185/pY187).
(§2) The effect of various concentrations of PPA derivatives on the cell culture was studied using xCelligence RTCA equipment (AceaBioscience, San Diego, CA, USA). The concentration closest to the IC50 (10 μM) was chosen as the experimental concentration. The selected concentration of phaeosphaeride A derivatives allows for the assessment of the early effect of compounds on cells and compares their effectiveness. In this experiment, the signaling pathways Akt (pSer473), p70S6K (pThr412), NFkB (p65-pSer536), and CREB (pSer133) were not activated (Table 8). The stress-activated signaling pathways ERK/MAP kinase 1/2 (pThr185/pTyr187), JNK (pThr183/pTyr185), and p38 (pThr180/pTyr182) were activated for these compounds.
(§3) We used a MILLIPLEX MAP Multi-Pathway Magnetic Bead 9-Plex-Cell Signaling Multiplex Assay kit (Merck/Millipore), according to the manufacturer’s protocol. A431 cells were cultured in DMEM with 10% FBS in 24-well plates. Compounds were added to the subconfluent cells at a concentration of 10 μM in DMEM medium for 1 h. Each compound was added in 5 experimental repeats. Cell lysates were prepared with lysis buffer (Millipore) with protease inhibitors (Complete, Roche); the protein concentration in the lysates was determined by the Lowry method. In samples equalized in protein concentration, the active forms of kinase cascades were determined using a Bio-Plex 200 fluorescent analyzer (Bio-Rad).

[2] = test system: JNK (pThr183/pTyr185); assay: MILLIPLEX MAP 9-Plex, JNK active form in A431 lysates; type: cell-based, human; conditions: 10 μM; for JNK (pThr183/pTyr185) fluorescence intensity: A431 cell lysates, 1 h, M ± mx, control 50.9 ± 10.5; for activation of signaling pathway JNK (pThr183/pTyr185), in words: A431 cells
Excerpt: as §1, §2, §3

[3] = test system: p38 (pThr180/pTyr182); assay: MILLIPLEX MAP 9-Plex, p38 active form in A431 lysates; type: cell-based, human; conditions: 10 μM; for p38 (pThr180/pTyr182) fluorescence intensity: A431 cell lysates, M ± mx, control 567.7 ± 266.6; for p38 (pThr180/pTyr182) fluorescence intensity / increase of fluorescence intensity of the active form p38: 1 h; for increase of fluorescence intensity of the active form p38 / activation of signaling pathway p38 (pThr180/pTyr182), in words: A431 cells; for increase of fluorescence intensity of the active form p38: versus control
Excerpt: as §1, §2, §3

[4] = test system: CREB (pSer133); assay: MILLIPLEX MAP 9-Plex, CREB active form in A431 lysates; type: cell-based, human; conditions: A431 cell lysates, 10 μM, 1 h, M ± mx; control 154.5 ± 34.2
Excerpt: as §1, §2, §3

[5] = test system: MCF-7; assay: MTT cytotoxicity, MCF-7 breast cancer cells; type: cell-based; conditions: Homo sapiens, MCF7, adhesive tumor culture, 48 h
Excerpt: (§4) Cell cultures used in the work: adhesive cultures HBL-100 cells (cells of a normal mammary gland epithelium, immortalized by the SV40 virus and acquired tumorigenicity); MCF-7 breast cancer cells; PC-3 prostate adenocarcinoma cells; HCT-116 colorectal cancer cells; non-small cell lung cancer cells A549; human embryonic kidney cells HEK293; suspension cultures (NCI-H929 and RPMI8226 multiple myeloma cells), K562 chronic myeloid leukemia cells; THP-1 acute monocytic leukemia cells; and Jurkat acute T-cell leukemia cells. We also used several primary cultures of soft tissue sarcomas at 3–4passeges, kindly provided by T.I. Fetisov (The Ethics Committee of N.N. Blokhin NMRCO, protocol code 18-28-09095 and date of approval 28 September 2018).
(§5) Modifications of cell lines: K562/i-S9 is a clone obtained after transfection of K562 cells with the ABCB1 (MDR1) gene-encoding P-glycoprotein [36]. Cells HBL-100/Dox and K562/i-S9_Dox are cells obtained by long-term selection with increasing concentrations of doxorubicin (Sigma-Aldrich, St. Louis, MO, USA) from HBL-100 and K562/i-S9 cells, respectively. MCF-7, A594 cells, and primary cultures of soft tissue sarcomas were cultured in DMEM medium (PanEko, Russia), PC-3 and HCT-116 cells and all suspension cultures in RPMI1640 medium (PanEko, Russia) supplemented with 10% fetal bovine serum (GE Healthcare LifeSciences, USA), and gentamicin at a concentration of 40 μg/mL at 37 °C and 5% CO2.
(§6) Cells MCF-7, PC-3, A549, and HCT-116, and primary cultures of STSwere seeded in 96-well plates, 6 × 10^3 cells per well in 90 μL of culture medium. Suspension cultures were seeded at a concentration of 25 × 10^3 cells per well in 135 μL of medium. The test substances were dissolved in DMSO (Applichem, Council Bluffs, IA, USA) until a concentration of 1 × 10^−^2 M was obtained; for the subsequent dilution of the substances, a serum-free culture medium was used. The next day, for adhesive cultures, and on the same day, for suspension cultures, substances were added to the plates in a volume of 10 μL (adhesive cultures) and 15 μL (suspension cultures) per well at various concentrations; each concentration was added in 3–4 repetitions. The cells were cultured in the presence of substances for 48 h. Then, MTT reagent (PanEko, Moscow, Russia) was added to the wells at a concentration of 5 mg/mL in a volume of 20 μL per well. After 1.5–2 h, the medium with the reagent was removed, and the precipitate of the crystals of formazan was dissolved in 60 μL of DMSO. The optical density was determined using a Multiskan FC spectrophotometer (Thermo Scientific, Waltham, MA, USA) at a wavelength of 540 nm.
(§7) Based on the results of the experiments, a schedule was plotted of the dependence of the percentage of surviving cells (from control) on the concentration of the compound, and the sought concentration IC50 was calculated. The experiments were carried out in 3–4 times.

[6] = test system: CMT № 2 (Malignant Schwannoma); assay: MTT cytotoxicity, primary culture of soft tissue sarcoma CMT № 2; type: cell-based; conditions: Homo sapiens, 48 h
Excerpt: (§8) It is believed that such cultures have a molecular profile that corresponds more with cells from the human body, in comparison with that of stable cultures of tumor cells (Table 3).
as §4, §5
as §6, with “Then, MTT reagent (PanEko, Moscow, Russia) was added to the wells at a concentration of 5 mg/mL in a volume of 20 μL per well. After 1.5–2 h, the medium with the reagent was removed, and the precipitate of the crystals of formazan was dissolved in 60 μL of DMSO.” left out
(§9) Based on the results of the experiments, a schedule was plotted of the dependence of the percentage of surviving cells (from control) on the concentration of the compound, and the sought concentration IC50 was calculated. […]

[7] = test system: CMT № 3 (Epithelial Sarcoma (Metastasis)); assay: MTT cytotoxicity, primary culture of soft tissue sarcoma CMT № 3; type: cell-based; conditions: Homo sapiens, 48 h
Excerpt: as §8, §4, §5
as §6, with “Then, MTT reagent (PanEko, Moscow, Russia) was added to the wells at a concentration of 5 mg/mL in a volume of 20 μL per well. After 1.5–2 h, the medium with the reagent was removed, and the precipitate of the crystals of formazan was dissolved in 60 μL of DMSO.” left out
as §9

[8] = test system: STAT5 (pTyr694/699); assay: MILLIPLEX MAP 9-Plex, STAT5 active form in A431 lysates; type: cell-based, human; conditions: 10 μM; for STAT5 (pTyr694/699) fluorescence intensity: A431 cell lysates, 1 h, M ± mx, control 44.2 ± 10.2
Excerpt: as §1, §2, §3

[9] = test system: RPMI8226; assay: MTT cytotoxicity, RPMI8226 multiple myeloma cells; type: cell-based; conditions: Homo sapiens, RPMI-8226, suspension culture, 48 h
Excerpt: as §4, §5, §6, §7

SMILES	Akt (pSer473) fluorescence intensity [1]	JNK (pThr183/pTyr185) fluorescence intensity [2]	p38 (pThr180/pTyr182) fluorescence intensity [3]	increase of fluorescence intensity of the active form p38 [3]	CREB (pSer133) fluorescence intensity [4]	IC50 [5]	IC50 [6]	IC50 [7]	STAT5 (pTyr694/699) fluorescence intensity [8]	IC50 [9]	activation of signaling pathway JNK (pThr183/pTyr185), in words [2]	activation of signaling pathway p38 (pThr180/pTyr182), in words [3]	activation of transcription factor STAT5A/B (pTyr694/699), in words ([8]; A431 cells)
C=C1C2=C(C(=O)N1OC)[C@@H](N1CCCC1)[C@@](C)(O)[C@H](CCCCC)O2 [Compound 1]	112.6 ± 12.0 rel. units	239.9 ± 23.9 *↑ rel. units	2349.9 ± 755.5 rel. units	1.5–3 times	329.9 ± 48.4 *↑ rel. units	3.9 ± 0.8 µM	2.5 ± 0.9 µM	4.8 ± 0.9 µM	115.4 ± 28.3 rel. units	1.6 ± 0.3 µM			
C=C1C2=C(C(=O)N1OC)[C@@H](N(C)C)[C@@](C)(O)[C@H](CCCCC)O2 [Compound 2, (2S,3R,4R)-4-(dimethylamino)-3-hydroxy-6-methoxy-3-methyl-7-methylene-2-pentyl-3,4,6,7-tetrahydropyrano[2,3-c]pyrrol-5(2H)-one]	132.4 ± 17.9 rel. units	559.2 ± 31.5 *↑ rel. units	2795.4 ± 572.0 *↑ rel. units	1.5–3 times	610.0 ± 113.0 *↑ rel. units	3 ± 0.8 µM	1.9 ± 0.5 µM	7.8 ± 0.6 µM	179.2 ± 12.6 *↑ rel. units	1.6 ± 0.5 µM	maximum degree of activation	maximum degree of activation	slightly activated
C=C1C2=C(C(=O)N1OC)[C@@H](N(CCCC)CCCC)[C@@](C)(O)[C@H](CCCCC)O2 [Compound 5, (2S,3R,4R)-4-(dibutylamino)-3-hydroxy-6-methoxy-3-methyl-7-methylene-2-pentyl-3,4,6,7-tetrahydropyrano[2,3-c]pyrrol-5(2H)-one]	100.9 ± 11.7 rel. units	83.1 ± 8.3 *↑ rel. units	1245.9 ± 342.8 rel. units		202.1 ± 26.3 rel. units	7.4 ± 0.5 µM			75.7 ± 2.7 *↑ rel. units	6.3 ± 0.3 µM	only slightly activated	only slightly activated	
C=C1C2=C(C(=O)N1OC)[C@@H](N(CC)CCO)[C@@](C)(O)[C@H](CCCCC)O2 [Compound 9, (2S,3R,4R)-4-[ethyl(2-hydroxyethyl)amino]-3-hydroxy-6-methoxy-3-methyl-7-methylene-2-pentyl-3,4,6,7-tetrahydropyrano[2,3-c]pyrrol-5(2H)-one]	88.8 ± 10.7 rel. units	117.9 ± 15.1 *↑ rel. units	657.1 ± 287.5 rel. units	1.5–3 times	339.8 ± 53.3 *↑ rel. units	2.9 ± 1 µM	4.1 ± 1.1 µM	13 ± 0.9 µM	69.6 ± 15.6 rel. units	1.8 ± 0.2 µM			
CCCCC[C@@H]1OC2=C(C(=O)N(OC)/C2=C\n2cnnc2)C(n2cnnc2)[C@@]1(C)O (stereo partly drawn) [Compound 10]	142.1 ± 9.5 *↑ rel. units	157.2 ± 15.4 *↑ rel. units	1783.6 ± 181.9 *↑ rel. units		584.8 ± 105.5 *↑ rel. units	49 ± 5.3 µM			115.2 ± 16.9 *↑ rel. units	51 ± 0.2 µM	only slightly activated	only slightly activated	
